Experimental data published in the METLIN SMRT retention time set (Domingo-Almenara et al. 2019).

Test: gradient 5% acetonitrile 3 min, to 50% in 2 min, to 85% in 15 min, held 3 min, 100 µL/min
Conditions: column: Zorbax Extend-C18 2.1 x 50 mm; eluents: water / acetonitrile, 0.1% formic acid
Procedure, shortened: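 Retention times come from adduct peaks that were picked computationally and then checked by hand. The standards, pure and pooled in mixtures of ~100 molecules, were run on a Zorbax Extend-C18 column (2.1 × 50 mm, 1.8 μm) at 100 μL/min with water and acetonitrile, each with 0.1% formic acid. Detection was by quadrupole time-of-flight mass spectrometry in positive and negative ionization mode, with a dead volume of 40 μL and a dwell volume of 900 μL.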

| SMILES | RP-LC retention time [s] |
| --- | --- |
| C=CCNC(=O)Nc1nc(CSC)cs1 | 653 |
| CC(Cc1ccccc1)NC(N)=O (configuration not stated) | 698 |
| O=C(NCC1OCCc2ccccc21)C(=O)N1CCCCC1 (configuration not stated) | 716 |
| Cc1ccc(CC(=O)Nc2cc(-c3nnc(C4CC4)o3)sc2C)cc1 | 981 |
| CCC(C)NC(=O)c1cc(C)[nH]n1 (configuration not stated) | 623 |
| CCOC(=O)C1CCCN(C(=O)c2cccc3c2SCCC3=O)C1 (configuration not stated) | 780 |
| Cc1c(C(=O)N2CCCC2)cnn1-c1ccc(-c2nc(C3CC3)no2)cn1 | 877 |
| COc1ccc(OCC(=O)N2CCc3c(c(C(=O)N4CCCC(C(=O)NC5CC5)C4)nn3C)C2)cc1 (configuration not stated) | 657 |
| Cc1ccc(CNC(=O)C2CCN(C(=O)c3nn(C)c4c3CN(C(=O)C(C)C)CC4)CC2)cc1 | 702 |
| Cc1sc(NC(=O)CCc2ccccc2)nc1-c1ccc2c(c1)NC(=O)C(C)O2 (configuration not stated) | 687 |
| Cc1ccc(-c2nc3nc4c(c(N5CCCC5)n3n2)CCC4)cc1 | 909 |
| CC(C)NC(=O)CN1CCN(Cc2nc(-c3ccc(N4CCCC4)nc3)no2)CC1 | 541 |
| CCOC(=O)c1sc2ccccc2c1S(=O)(=O)N1CCC(C(N)=O)(N2CCCCC2)CC1 | 656 |
| COc1ccc(-c2cn3cccnc3n2)cc1NC(=O)c1ccccc1Br | 685 |
| COc1ccc(-c2nc(NCCN3CCC(C)CC3)c3ccccc3n2)cc1 | 580 |
| CCc1cc(=O)n(CC(=O)Nc2ccc(C)c(Cl)c2)c(N2CCOCC2)n1 | 871 |
| Cc1ccc(N2C(=O)C3N=NN(Cc4nc(-c5cccc(C)c5)no4)C3C2=O)cc1 (configuration not stated) | 1040 |
| O=C(N1CC(Oc2ccccc2-c2nc(C3CC3)no2)C1)C1(c2ccccc2)CC1 | 665 |
| COc1cccc(-c2noc(CCn3nc(-c4ccc5c(c4)OCO5)ccc3=O)n2)c1OC | 852 |
| CCSc1ccccc1C(=O)NCC1CCN(C(=O)Oc2ccccc2)CC1 | 863 |

| SMILES | RP-LC retention time [s] |
| --- | --- |
| Cc1cc(NC(=O)CSc2nc(-c3cccnc3)ccc2C#N)no1 | 626 |
| CC(C)CNC(=O)c1cn(-c2ccc(S(=O)(=O)N3CCCC(C)C3)cn2)cn1 (configuration not stated) | 936 |
| CC(=O)N1CCN(c2nc(C)cc(N3CCCC3)n2)CC1 | 580 |
| COc1ccc(C2(C(=O)N3CCC(c4noc(-c5cccc(OC)c5)n4)CC3)CC2)cc1 | 1040 |
| Cc1ccc(C2Cn3nc(-c4nc(-c5ccccc5)no4)cc3CO2)cc1 (configuration not stated) | 1260 |
| O=C([C@@H]1C[C@H](Oc2ccccc2)CN1C(=O)CCCc1c[nH]c2ccccc12)N1CCCC1 | 865 |
| CC1(C)Cc2cccc(OCC(=O)N3CCN(Cc4nnnn4-c4ccccc4)CC3)c2O1 | 811 |
| COc1ccc(C)cc1NC(=O)Cn1c(C)nc2c(sc3nc(-c4ccccc4)ccc32)c1=O | 1110 |
| CCOc1ccc(-c2csc(NC(=O)CCc3ccccc3)n2)cc1 | 1120 |
| COc1ccc(C2C(C(=O)NCCN(C)C)c3ccccc3C(=O)N2C)cc1OC (configuration not stated) | 700 |
| Cc1nn(-c2cc(N(C)C)ncn2)c(C)c1CCC(=O)N1CCC(Cc2ccccc2)CC1 | 969 |
| CCOC(=O)c1c(C)[nH]c(C(=O)N2CCC(CC(=O)N3CCCC3)CC2)c1C | 694 |
| CC1CCN(c2ccc(-c3noc(CN4CCN(CC(=O)NC(C)C)CC4)n3)cn2)CC1 | 646 |
| COc1ccc(N2CCN(C(=O)C34CCC(C)(C(=O)C3)C4(C)C)CC2)cc1 (configuration not stated) | 784 |
| COc1ccccc1Nc1c(-c2ccccc2)nc2cnccn12 | 875 |
| CCOC(=O)c1c(C)[nH]c(NC(=O)N2CCN(c3ccc(OC)cc3)CC2)c1C | 703 |
| Cc1ccc(C(=O)Nc2nc(-c3ccc4c(c3)NC(=O)CO4)c(C)s2)cc1 | 931 |
| OCC(O)C1OCOC(C(O)CO)C1O (configuration not stated) | 719 |
| O=C(NCc1ccco1)c1cccc(Nc2c(-c3ccccc3)nc3cnccn23)c1 | 756 |
| COc1ccc(OC)c(NC(=O)C2Oc3ccccc3NC2=O)c1 (configuration not stated) | 773 |

Other lines, results leading:

| RP-LC retention time [s] | SMILES |
| --- | --- |
| 838 | O=C(CS(=O)Cc1cnn(-c2ccccc2)c1-n1cccc1)NCc1cccc(F)c1 (configuration not stated) |
| 928 | Cc1ccc(-n2c(=O)c3c(cc(C)n3C)n(CC(=O)N3CCc4ccccc43)c2=O)cc1 |
| 571 | Cc1ccc2c(c1)NC(=O)c1cc(NS(=O)(=O)c3ccccc3F)ccc1O2 |
| 832 | O=C(c1cccs1)N1CCCc2cc(NS(=O)(=O)c3cc(F)ccc3F)ccc21 |
| 711 | Cc1nc(-c2cnccn2)n(CC(=O)Nc2cccc(C#N)c2)c(=O)c1C |
| 750 | CCC(=O)N1CCc2cc(N3CC(C(=O)NCc4ccccc4C)CC3=O)ccc21 (configuration not stated) |
| 673 | CCNC(=O)N1CC=C(C(=O)Nc2cccc(F)c2)CC1 |
| 1080 | Cc1csc(-c2cc(S(=O)(=O)Nc3ccc(Cl)cc3F)c(C)s2)n1 |
| 762 | COCCCNC(=O)Nc1ccc2c(c1)CCN2S(=O)(=O)c1ccccc1 |
| 770 | COc1cccc(CC(=O)N2CCC(C(=O)NCCc3csc(-c4cccs4)n3)CC2)c1 |
| 1130 | O=C1C2N=NN(Cc3nc(-c4cccc(Br)c4)no3)C2C(=O)N1c1ccc2c(c1)CCC2 (configuration not stated) |
| 796 | COc1ccccc1OCC(=O)NCCCS(=O)(=O)N1CCN(c2ccccc2)CC1 |
| 1220 | COC(=O)c1ccc2c(=O)n(-c3cc(OC)cc(OC)c3)c(N3CCCCCC3)nc2c1 |
| 736 | CCOC(=O)c1cnc2nc(C)ccc2c1Nc1ccc(C)c(F)c1 |
| 856 | O=c1ccc(-c2cccs2)nn1CCCNS(=O)(=O)c1cccc(Cl)c1Cl |
| 637 | CCN1C(=O)c2cccnc2Sc2cc(NC(=O)c3cccnc3)ccc21 |
| 831 | CCN(CC)c1nc2ccsc2c(=O)n1CCC(=O)NCc1ccc(F)cc1 |
| 812 | O=C(Nc1ccc(F)c(Cl)c1)C1CCN(S(=O)(=O)c2ccc3[nH]c(=O)ccc3c2)CC1 |
| 861 | O=C(Cc1ccc(F)cc1)N1CCN(C(=O)c2nnn3c2COC(c2ccc(F)cc2)C3)CC1 (configuration not stated) |
| 964 | Cc1cc2nnc(SCC(=O)Nc3nc(-c4ccccc4)cs3)n2c2ccccc12 |
| 672 | O=S(=O)(NCC(c1ccco1)N1CCN(c2ccccc2F)CC1)c1cccs1 (configuration not stated) |
| 644 | CCc1ccc(NC(=O)c2cn3c(n2)CCCC3)cc1 |
| 947 | O=C1NC(=O)[C@@H](c2cn3c4c(cccc24)CCC3)[C@@H]1c1c[nH]c2ccccc12 |
| 785 | CC(C)C(=O)Nc1ccc(-n2cnc(C(=O)NCc3cc(F)cc(F)c3)c2)nc1 |

| RP-LC retention time [s] | SMILES |
| --- | --- |
| 1190 | Cc1ccc(CNc2ccc(-c3nc(-c4ccc(F)cc4)no3)cn2)o1 |
| 651 | O=C(Nc1ccc(F)cc1)Nc1c(-c2ccccc2)nc2ccccn12 |
| 607 | CC(C)C(=O)N1CCc2cc(-c3ccc(C(=O)NCCCN4CCN(C)CC4)cc3)ccc21 |
| 828 | CCN1C(=O)c2cccnc2Sc2cc(NC(=O)c3ccccc3Cl)ccc21 |
| 964 | Cc1ccc(CNS(=O)(=O)c2cc(-c3cc(C(F)(F)F)[nH]n3)sc2C)o1 |
| 832 | CCCCNC(=O)c1ccc(-c2ccc3c(c2)CCN3C(C)=O)cc1 |
| 857 | O=C(NCc1ccc2c(c1)OCO2)c1ccc2c(c1)N(Cc1ccccc1)C(=O)CO2 |
| 736 | Cc1cc(NC(=O)c2cccc(NS(=O)(=O)c3ccc(F)cc3)c2)no1 |
| 1100 | CCCN1C(=O)c2cc(S(=O)(=O)Nc3ccc(C)cc3)ccc2Oc2cccnc21 |
| 825 | O=C(Nc1ccccc1)C1CC(=O)N(CCc2c[nH]c3ccc(Cl)cc23)C1 (configuration not stated) |
| 929 | CCOc1ccc(NC(=O)Cn2nc(N3CCSCC3)c3ccccc3c2=O)cc1 |
| 933 | CN(C(=O)c1cc2c(=O)oc3ccccc3c2n1C)c1cccc(Cl)c1 |
| 874 | Cc1nc(-c2cn(C)c3ncccc23)sc1C(=O)NCc1ccccc1F |
| 962 | Cc1cccc(-n2c(=O)c3c(cc(C)n3C)n(CC(=O)Nc3cccc(Br)c3)c2=O)c1 |
| 885 | CCc1noc(NC(C)=O)c1-c1ccc(C)c(S(=O)(=O)Nc2cc(C)cc(C)c2)c1 |
| 685 | CNC(=O)C1CCCN(c2nc3ncn(CC(=O)Nc4ccc(Cl)cc4)c(=O)c3s2)C1 (configuration not stated) |
| 832 | Cc1ccsc1C(=O)NCC(=O)N1CCCc2ccccc21 |
| 1060 | COc1cccc(N2CCN(S(=O)(=O)c3cc(-c4nnc(C5CCC5)o4)co3)CC2)c1 |
| 849 | O=C(c1ccco1)N1CCN=C1SCc1cccc(C(F)(F)F)c1 |
| 980 | CSc1ccc(CNC(=O)c2nnn3c2COC(c2ccc(F)cc2)C3)cc1 (configuration not stated) |
| 747 | Cc1ccc2c(c1)C(O)(CC(=O)c1ccc(NC(=O)C(C)(C)C)cc1)C(=O)N2 (configuration not stated) |
| 673 | O=C(Cc1ccccc1)Nc1c(C(=O)N2CCN(c3ccccn3)CC2)oc2ccccc12 |
| 832 | COc1cc2nc(C(=O)N3CCCCC3)cc(Nc3ccc(C(C)C)cc3)c2cc1OC |
